What is called pIC50 is the IC50 on a negative log10 scale, so that one unit is a factor of ten.

pIC50: −log10 of the molar value. Where two headings read alike, the source gives them in different places.

In experiment [1] the target is T1, His-GST-TVMV-hRIPK1(1-324) (Homo sapiens, UniProt Q13546).
T1 construct: The coding region of human RIPK1(1-324) flanked by NdeI site at 5′ end; made in house; host or cells: Spodoptera frugiperda Sf9 insect cells (baculovirus, Bac-to-Bac)
T1 sequence (Q13546 1-324): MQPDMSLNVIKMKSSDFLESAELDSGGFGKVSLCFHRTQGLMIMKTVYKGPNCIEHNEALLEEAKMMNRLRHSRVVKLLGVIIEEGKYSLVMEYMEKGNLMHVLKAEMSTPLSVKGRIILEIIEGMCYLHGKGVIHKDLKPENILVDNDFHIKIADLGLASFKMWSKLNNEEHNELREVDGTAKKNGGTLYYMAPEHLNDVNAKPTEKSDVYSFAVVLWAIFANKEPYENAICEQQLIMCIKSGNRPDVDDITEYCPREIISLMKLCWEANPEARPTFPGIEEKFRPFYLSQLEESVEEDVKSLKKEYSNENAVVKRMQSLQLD
Briefly: biochemical. Type of experiment: binding.

The subject of experiment [2] is MLKL phosphorylation in HT29-L23 human colorectal adenocarcinoma cells. Briefly: MLKL phosphorylation high-content assay. Type of experiment: cell-based.
Where [3] appears, read: HTRF probe displacement, 1 h at rt, read-out: RIPK1 IC50.
[4] abbreviates: read-out: pMLKL IC50, HT29-L23 cells, necroptosis induced with TNFα, SMAC mimetic and Z-VAD, 6 h, maximal inhibition defined by Nec1s.
Setting [5] is: HT29-L23 cells, necroptosis induced with TNFα, SMAC mimetic and Z-VAD, 6 h, maximal inhibition defined by Nec1s, read-out: pMLKL IC50.
Setting [6] is: Homo sapiens, 6 h, read-out: pMLKL IC50, HT29-L23 cells, necroptosis induced with TNFα, SMAC mimetic and Z-VAD, 6 h, maximal inhibition defined by Nec1s.

`[2H]C(O)(c1ccc(C(F)F)cc1)C(F)(F)CNC(=O)c1c(Cl)ccc(-c2ccn3nc(N)nc3c2)c1F` (single isomer, unassigned) [Example 312, 3-(2-amino-[1,2,4]triazolo[1,5-a]pyridin-7-yl)-6-chloro-N-(3-(4-(difluoromethyl)phenyl)-2,2-difluoro-3-hydroxypropyl-3-d)-2-fluorobenzamide]: the results for the pIC50 in experiment [1] (setting [3]) and in experiment [2] (setting [4]) were 8.24 and 9.05, respectively.

Turning to `Cc1ccc(-c2ccn3nc(N)nc3c2C)c(F)c1C(=O)NCC[C@H](O)c1ccc(Cl)cc1` (single isomer, unassigned; enantiomer 2) [Example 138], the pIC50 in experiment [1] (setting [3]) was 7.96; in experiment [2] (setting [5]), 9.70.

On to `Cc1ccc(-c2ccn3nc(N)nc3c2)c(F)c1C(=O)NCCC(C)(F)c1ccc(Cl)cc1` (stereo not shown) [Example 228, 3-(2-amino-[1,2,4]triazolo[1,5-a]pyridin-7-yl)-N-(3-(4-chlorophenyl)-3-fluorobutyl)-2-fluoro-6-methylbenzamide], for which the pIC50 is 9.05 in experiment [1] (setting [3]) and 9.00 in experiment [2] (setting [6]).

As for `[2H]C([2H])(CC([2H])(O)c1ccc(Cl)cc1)NC(=O)c1c(Cl)ccc(-c2ccn3nc(N)nc3c2)c1F` (single isomer, unassigned) [Example 76, 3-(2-amino-[1,2,4]triazolo[1,5-a]pyridin-7-yl)-6-chloro-N-(3-(4-chlorophenyl)-3-hydroxypropyl-1,1,3-d3)-2-fluorobenzamide], the pIC50 in experiment [1] (setting [3]) is 8.82; in experiment [2] (setting [4]), 8.48.

As to `[2H]C([2H])(CC([2H])(O)c1ccc(Cl)cc1)NC(=O)c1c(Cl)ccc(-c2ccn3nc(N)nc3c2)c1F` (stereo not shown) [Example 75, 3-(2-amino-[1,2,4]triazolo[1,5-a]pyridin-7-yl)-6-chloro-N-(3-(4-chlorophenyl)-3-hydroxypropyl-1,1,3-d3)-2-fluorobenzamide], the pIC50 in experiment [1] (setting [3]) is 8.49; in experiment [2] (setting [4]), 8.37.

In the case of `Nc1nc2cc(-c3ccc(Cl)c(C(=O)NCC(F)(F)C(O)c4cccc(C(F)(F)F)n4)c3F)ccn2n1` (single isomer, unassigned) [Example 254, 3-(2-amino-[1,2,4]triazolo[1,5-a]pyridin-7-yl)-6-chloro-N-(2,2-difluoro-3-hydroxy-3-(6-(trifluoromethyl)pyridin-2-yl)propyl)-2-fluorobenzamide], the pIC50 is 8.46 in experiment [1] (setting [3]) and 8.39 in experiment [2] (setting [4]).

As to `Nc1nc2cc(-c3ccc(OC(F)F)c(C(=O)NCC(F)(F)[C@@H](O)c4ccc(F)cc4)c3F)ccn2n1` [Example 306, (S)-3-(2-amino-[1,2,4]triazolo[1,5-a]pyridin-7-yl)-N-(2,2-difluoro-3-(4-fluorophenyl)-3-hydroxypropyl)-6-(difluoromethoxy)-2-fluorobenzamide], the pIC50 in experiment [1] (setting [3]) was 7.96; in experiment [2] (setting [6]) it was 8.38.

As to `[2H]C([2H])([2H])c1ccc(-c2ccn3nc(N)nc3c2)c(F)c1C(=O)NCC1(C([2H])(O)c2ccc(F)cc2)CC1` (single isomer, unassigned) [Example 309, 3-(2-amino-[1,2,4]triazolo[1,5-a]pyridin-7-yl)-2-fluoro-N-((1-((4-fluorophenyl) (hydroxy)methyl-d)cyclopropyl)methyl)-6-(methyl-d3)benzamide], the negative logarithm of the IC50 (pIC50) is 8.21 in experiment [1] (setting [3]) and 7.96 in experiment [2] (setting [6]).

`Nc1nc2cc(-c3ccc(C(F)(F)F)c(C(=O)NCC(F)(F)[C@@H](O)c4ccc(F)cc4)c3F)ccn2n1` [Example 315, (S)-3-(2-amino-[1,2,4]triazolo[1,5-a]pyridin-7-yl)-N-(2,2-difluoro-3-(4-fluorophenyl)-3-hydroxypropyl)-2-fluoro-6-(trifluoromethyl)benzamide]: the pIC50 in experiment [1] (setting [3]) is 8.16; in experiment [2] (setting [6]), 9.40.

As for `Nc1nc2cc(-c3ccc(Cl)c(C(=O)NCC(F)(F)C(O)c4cc(F)ccc4F)c3F)ccn2n1` (single isomer, unassigned) [Example 177, 3-(2-amino-[1,2,4]triazolo[1,5-a]pyridin-7-yl)-6-chloro-N-(3-(2,5-difluorophenyl)-2,2-difluoro-3-hydroxypropyl)-2-fluorobenzamide], the pIC50 in experiment [1] (setting [3]) is 8.74; in experiment [2] (setting [4]) it was 7.64.

For `Cc1ccc(-c2ccn3nc(N)nc3c2)c(F)c1C(=O)NCC(C)(F)C(O)c1ccc(F)cc1` (single isomer, unassigned) [Example 205, 3-(2-amino-[1,2,4]triazolo[1,5-a]pyridin-7-yl)-2-fluoro-N-(2-fluoro-3-(4-fluorophenyl)-3-hydroxy-2-methylpropyl)-6-methylbenzamide], the pIC50 in experiment [1] (setting [3]) was 8.21; in experiment [2] (setting [4]), 8.29.

On to `Nc1nc2cc(-c3ccc(Cl)c(C(=O)NCC(F)(F)Cc4ccc(F)cc4)c3F)ccn2n1` [Example 207, 3-(2-amino-[1,2,4]triazolo[1,5-a]pyridin-7-yl)-6-chloro-N-(2,2-difluoro-3-(4-fluorophenyl)propyl)-2-fluorobenzamide], for which the pIC50 in experiment [1] (setting [3]) is 8.74; in experiment [2] (setting [6]), 9.22.

For `Nc1nc2cc(-c3ccc(Cl)c(C(=O)NCCC(O)c4ccc(F)cc4)c3F)ccn2n1` (single isomer, unassigned) [Example 79, 3-(2-amino-[1,2,4]triazolo[1,5-a]pyridin-7-yl)-6-chloro-2-fluoro-N-(3-(4-fluorophenyl)-3-hydroxypropyl)benzamide], the pIC50 was 8.32 in experiment [1] (setting [3]) and 7.72 in experiment [2] (setting [6]).

For `Cc1cc(F)c(-c2ccn3nc(N)nc3c2)cc1C(=O)NCCC(O)c1ccc(F)cc1` (stereo not shown) [Example 8, 5-(2-amino-[1,2,4]triazolo[1,5-a]pyridin-7-yl)-4-fluoro-N-(3-(4-fluorophenyl)-3-hydroxypropyl)-2-methylbenzamide], the pIC50 in experiment [1] (setting [3]) was 8.29; in experiment [2] (setting [6]), 8.64.

With “(R)-3-(2-amino-[1,2,4]triazolo[1,5-a]pyridin-7-yl)-6-cyclopropyl-N-(2,2-difluoro-3-(4-fluorophenyl)-3-hydroxypropyl)-2-fluorobenzamide [Example 305]”, the figures for the pIC50 in experiment [1] (setting [3]) and in experiment [2] (setting [5]) were 8.80 and 9.22, respectively.

As for `Nc1nc2cc(-c3ccc(Cl)c(C(=O)NCC(F)(F)C(O)c4ccc(C(F)(F)F)cc4F)c3F)ccn2n1` (stereo not shown) [Example 164, 3-(2-amino-[1,2,4]triazolo[1,5-a]pyridin-7-yl)-6-chloro-N-(2,2-difluoro-3-(2-fluoro-4-(trifluoromethyl)phenyl)-3-hydroxypropyl)-2-fluorobenzamide], the pIC50 was 8.55 in experiment [1] (setting [3]) and 8.54 in experiment [2] (setting [6]).

Turning to `Cc1ccc(-c2ccn3nc(N)nc3c2)c(F)c1C(=O)NCCC(C)(O)c1ccc(Cl)cc1` (racemic) [Example 17, 3-(2-amino-[1,2,4]triazolo[1,5-a]pyridin-7-yl)-N-(3-(4-chlorophenyl)-3-hydroxybutyl)-2-fluoro-6-methylbenzamide], the figures for the pIC50 in experiment [1] (setting [3]) and in experiment [2] (setting [6]) were 8.72 and 8.60, respectively.

Turning to `Cc1ccc(-c2ccn3nc(N)nc3c2)c(F)c1C(=O)NCC(O)C(F)(F)c1ccc(F)cc1` (single isomer, unassigned) [Example 291, 3-(2-amino-[1,2,4]triazolo[1,5-a]pyridin-7-yl)-N-(3,3-difluoro-3-(4-fluorophenyl)-2-hydroxypropyl)-2-fluoro-6-methylbenzamide], the pIC50 is 9.00 in experiment [1] (setting [3]); 9.00 in experiment [1] (Table 22, compounds of the present invention, read-out: RPIK1 IC50); 8.62 in experiment [2] (setting [4]); 8.62 in experiment [2] (read-out: pMLKL IC50, Table 22, compounds of the present invention).

Take `Cc1cc(F)c(-c2ccn3nc(N)nc3c2)cc1C(=O)NCC[C@H](O)c1ccc(Cl)cc1` [Example 1, (S)-5-(2-amino-[1,2,4]triazolo[1,5-a]pyridin-7-yl)-N-(3-(4-chlorophenyl)-3-hydroxypropyl)-4-fluoro-2-methylbenzamide]: the pIC50 in experiment [1] (setting [3]) was 8.92; in experiment [2] (setting [6]), 8.89.

Turning to `COC(c1ccc(F)cc1)C(F)(F)CNC(=O)c1c(C)ccc(-c2ccn3nc(N)nc3c2)c1F` (single isomer, unassigned) [Example 234, 3-(2-amino-[1,2,4]triazolo[1,5-a]pyridin-7-yl)-N-(2,2-difluoro-3-(4-fluorophenyl)-3-methoxypropyl)-2-fluoro-6-methylbenzamide], the negative-log IC50 (pIC50) in experiment [1] (setting [3]) was 8.08; in experiment [2] (setting [4]), 8.52.

Take `Nc1nc2cc(-c3ccc(Cl)c(C(=O)NCC(F)C(O)c4ccc(Cl)cc4)c3F)ccn2n1` (stereo not shown) [Example 129, 3-(2-amino-[1,2,4]triazolo[1,5-a]pyridin-7-yl)-6-chloro-N-(3-(4-chlorophenyl)-2-fluoro-3-hydroxypropyl)-2-fluorobenzamide]: the pIC50 in experiment [1] (setting [3]) was 8.46; in experiment [2] (setting [4]), 8.77.

As for `Cc1ccc(-c2ccn3nc(N)nc3c2)c(F)c1C(=O)NCC(F)(F)Cc1ccc(F)cc1` [Example 208, 3-(2-amino-[1,2,4]triazolo[1,5-a]pyridin-7-yl)-N-(2,2-difluoro-3-(4-fluorophenyl)propyl)-2-fluoro-6-methylbenzamide], the results for the pIC50 in experiment [1] (setting [3]) and in experiment [2] (setting [6]) were 8.59 and 9.70, respectively.

Source of the values: patent US11767322B2 (BRISTOL-MYERS SQUIBB COMPANY, priority 2020, dated 2023).
